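Method: 48-hour compound exposure of cells in 96-well plates, five concentrations, linear interpolation of endpoints. Here, GI50 denotes the concentration required for 50% inhibition of growth. TGI: total growth inhibition.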
How the values were obtained:
Assay in all cases: NCI-60 cell line screen, 48 h
SNB-75 CNS = test system: SNB-75 CNS
UACC-62 melanoma = test system: UACC-62 melanoma
CAKI-1 renal = test system: CAKI-1 renal
786-0 renal = test system: 786-0 renal
SNB-19 CNS = test system: SNB-19 CNS
SF-295 CNS = test system: SF-295 CNS
KM12 colon = test system: KM12 colon
NCI-H23 lung = test system: NCI-H23 lung
MALME-3M melanoma = test system: MALME-3M melanoma
A498 renal = test system: A498 renal

Row | Structure (SMILES) | TGI (SNB-75 CNS) | TGI (UACC-62 melanoma) | TGI (CAKI-1 renal) | TGI (786-0 renal) | TGI (SNB-19 CNS) | TGI (SF-295 CNS) | TGI (KM12 colon) | TGI (NCI-H23 lung) | TGI (MALME-3M melanoma) | GI50 (A498 renal) | TGI (A498 renal) | GI50 (UACC-62 melanoma) | GI50 (CAKI-1 renal) | GI50 (786-0 renal) | GI50 (SNB-19 CNS) | GI50 (SF-295 CNS) | GI50 (KM12 colon) | GI50 (NCI-H23 lung) | GI50 (SNB-75 CNS) | GI50 (MALME-3M melanoma)
1 | COc1ccc(/C=C2\S/C(=N/Nc3nc(-c4ccccc4)cs3)NC2=O)cc1OC | 64.4 µM | 74.5 µM | > 100 µM | 93.4 µM | 89.9 µM | 86.3 µM | 82.2 µM | 69.4 µM | – | – | – | – | – | – | – | – | – | – | – | –
2 | C1=C2/CC[C@H](Sc3ccccc3)[C@H]2C2(CCCCC/1)OCCO2 | > 100 µM | 62.4 µM | 63 µM | > 100 µM | > 100 µM | > 100 µM | > 100 µM | > 100 µM | 73.8 µM | – | – | – | – | – | – | – | – | – | – | –
3 | COc1cc(C(=O)NC2CCN(C)CC2)c(F)cc1Nc1ncc2c(n1)N(C1CCCC1)CC(F)(F)C(=O)N2C | – | 13.7 µM | 3.71 µM | 11.7 µM | 17.1 µM | – | 14 µM | 3.4 µM | – | < 0.0196 µM | 0.14 µM | < 0.0237 µM | < 0.0243 µM | 0.0435 µM | < 0.0281 µM | < 0.0176 µM | < 0.01 µM | < 0.0182 µM | – | –
4 | CCSCCCN(CCCSCC)CCCSCC | > 100 µM | > 100 µM | – | > 100 µM | > 100 µM | > 100 µM | > 100 µM | > 100 µM | – | – | – | – | – | – | – | – | – | – | – | –
5 | COc1ccc(/C=N/N=C(\N)NO)c(OC)c1 | – | > 100 µM | > 100 µM | > 100 µM | > 100 µM | 70.7 µM | > 100 µM | > 100 µM | > 100 µM | – | – | – | – | – | – | – | – | – | – | –
6 | COc1cc([C@H]2OC[C@H]3[C@@H]2CO[C@@H]3c2cc(OC)c3c(c2)OCO3)cc(OC)c1OC | > 100 µM | > 100 µM | > 100 µM | > 100 µM | > 100 µM | > 100 µM | > 100 µM | > 100 µM | – | – | > 100 µM | – | – | – | – | – | – | – | – | –
7 | O=C1c2ccccc2-c2c1c1ccccc1c(=O)n2CCN1CCOCC1 | > 100 µM | > 100 µM | 90.3 µM | > 100 µM | > 100 µM | > 100 µM | > 100 µM | – | > 100 µM | – | – | 29.4 µM | 23.9 µM | > 100 µM | > 100 µM | 48.1 µM | 61.8 µM | – | > 100 µM | > 100 µM
8 | Cc1ccc(Nc2nc(C)c(C(/C=C/c3ccc(/C=C/C(=N/NC(=O)C[n+]4ccccc4)c4sc(Nc5ccc(C)cc5[N+](=O)[O-])nc4C)cc3)=N\NC(=O)C[n+]3ccccc3)s2)c([N+](=O)[O-])c1 | > 100 µM | 67 µM | > 100 µM | > 100 µM | > 100 µM | > 100 µM | > 100 µM | > 100 µM | > 100 µM | – | – | – | – | – | – | – | – | – | – | –
9 | COc1ccc(OC)c(-c2c(C#N)c(N)nc(N3CCOCC3)c2C#N)c1 | 57.4 µM | > 100 µM | 97 µM | > 100 µM | > 100 µM | > 100 µM | > 100 µM | – | – | 52.6 µM | > 100 µM | 44.5 µM | 43.4 µM | > 100 µM | > 100 µM | > 100 µM | > 100 µM | – | 12.9 µM | –
10 | CN(C(=O)c1ccco1)C(=S)N1CCN(c2ccccc2)CC1 | > 100 µM | > 100 µM | > 100 µM | > 100 µM | > 100 µM | > 100 µM | > 100 µM | > 100 µM | > 100 µM | – | – | – | – | – | – | – | – | – | – | –
11 | [N-]=[N+]=NC(CI)c1cn([C@H]2C[C@H](O)[C@@H](CO)O2)c(=O)[nH]c1=O (stereo partly drawn) | > 100 µM | > 100 µM | > 100 µM | > 100 µM | > 100 µM | > 100 µM | > 100 µM | > 100 µM | > 100 µM | – | – | – | – | – | – | – | – | – | – | –
12 | Nc1ncnc2c1nnn2C1CCC(CP(=O)(O)O)C1 (stereo not drawn) | > 100 µM | > 100 µM | > 100 µM | > 100 µM | > 100 µM | > 100 µM | > 100 µM | > 100 µM | > 100 µM | – | – | – | – | – | – | – | – | – | – | –
13 | CCCOC(=O)N1CCN(/[N+]([O-])=N/Oc2ccc([N+](=O)[O-])cc2[N+](=O)[O-])CC1 | 36.1 µM | 5.59 µM | 5.04 µM | 2.95 µM | 18.7 µM | 14.9 µM | 5.66 µM | 5.34 µM | – | – | – | 2.26 µM | 2.16 µM | 1 µM | 5.08 µM | 3.76 µM | 2.01 µM | 2.25 µM | 18.2 µM | –
14 | O=C(Nc1ccc(Cl)c(Cl)c1)O/N=C\c1c(Cl)ccc([N+](=O)[O-])c1Cl | 9.5 µM | – | 3.38 µM | 13.5 µM | 20.6 µM | 8.14 µM | 3.21 µM | 9.7 µM | – | 10.6 µM | 22.8 µM | – | 1.67 µM | 3.96 µM | 7.6 µM | 2.8 µM | 1.62 µM | 2.95 µM | 2.12 µM | –
15 | NC(=O)c1c(NC(=O)c2ccc3c(c2)OCO3)sc2c1CCC(=O)C2 | 6.5 µM | – | – | > 100 µM | > 100 µM | 6.71 µM | – | 5.64 µM | 4.67 µM | – | – | – | – | 2.19 µM | 2.17 µM | 2.31 µM | – | 1.32 µM | 2.13 µM | 2.04 µM

Reference: PubChem BioAssay (NCI)
